Common to all, as to assay type: cell-based
Conditions in all cases: MTS assay, 72 hours

Assay [1] has as its target T1, wild-type HER2 transformed Ba/F3 cells (Homo sapiens, UniProt P04626).
T1 construct: expressed in transfected cells; host or cells: Ba/F3
The assay can be described thus: Proliferation inhibition assay, wild-type HER2 transformed Ba/F3 cells. As to the method: (§1) Cell growth inhibition can be assessed by MTS assay or by Cell Titer Glo Luminescent Cell viability assay (Promega®). Cells are seeded and grow in culture plates before they are exposed to representative compounds of the application for various duration. The viability of the cells are then assessed. […] The growth curves can be fitted using a nonlinear regression model with sigmoidal dose response.
(§2) Cell growth inhibition was assessed by MTS assay for Ba/F3, DFCI58-229, and DFCI127c cells, or by Cell Titer Glo Luminescent Cell viability assay (Promega®) for DFC1362JC cells, 3000 Ba/F3 cells were seeded for per well in 96-well plates, and were exposed to representative compounds of the application (3.3 nM to 10 μM) for 72 hours. For DFCI58-229, DFCI127c, and DFC1362JC cells, 5000 cells were seeded per well. All experimental points included 6 to 12 wells. […] The growth curves were fitted using a nonlinear regression model with sigmoidal dose response.
(§3) Activities of representative compounds of the present application in inhibiting EGFR and HER2 were tested by MTS assay (for Ba/F3 cell, DFCI58-229 cell, and DFCI127c cells) or by CellTiter-Glot luminescent cell viability assay (for DFCI362JC cells). For assays with Ba/F3 cells, 3000 cells were seeded for per well in 96-well plates and were exposed to indicated compounds with a concentration of 3.3 to 10 μM for 72 hours. For assays with DFCI58-229 cell, DFCI127c cell, or DFCI362JC cell, 5000 cells were seeded per well in 96-well plates and were exposed to indicated compounds with a concentration of 3.3 to 10 μM for 72 hours.

Assay [2] has as its target T2, HER2 InsWLV transformed Ba/F3 cells (Homo sapiens, UniProt P04626, INS773WL/M774V).
T2 construct: expressed in transfected cells; host or cells: Ba/F3
The assay can be described thus: Proliferation inhibition assay, HER2 InsWLV transformed Ba/F3 cells. As to the method: as §1, §2, §3

For assay [3], the target named is T3, HER2 InsYVMA (A775_G776insYVMA) transformed Ba/F3 cells (Homo sapiens, UniProt P04626, INS775YVMA).
T3 construct: expressed in transfected cells; host or cells: Ba/F3
The assay can be described thus: Proliferation inhibition assay, HER2 InsYVMA transformed Ba/F3 cells. The method, then: as §1, §2, §3

Assay [4] has as its target T4, wild-type EGFR transformed Ba/F3 cells (Homo sapiens, UniProt P00533).
T4 construct: expressed in transfected cells; host or cells: Ba/F3
The assay can be described thus: Proliferation inhibition assay, wild-type EGFR transformed Ba/F3 cells. As to the method: as §1, §2, §3

For assay [5], the target named is T5, EGFR InsSVD (D770_N771insSVD) transformed Ba/F3 cells (Homo sapiens, UniProt P00533, INS770SVD).
T5 construct: expressed in transfected cells; host or cells: Ba/F3
As to the kind of experiment: Proliferation inhibition assay, EGFR InsSVD transformed Ba/F3 cells. The method, then: as §1, §2, §3

Assay [6] addresses T6, EGFR InsH transformed Ba/F3 cells (Homo sapiens, UniProt P00533, DUP773-773).
T6 construct: expressed in transfected cells; host or cells: Ba/F3
As to the kind of experiment: Proliferation inhibition assay, EGFR InsH transformed Ba/F3 cells. As to the method:
as §1, §2, §3

In assay [7] the target is T7, EGFR InsGY (D770delinsGY) transformed Ba/F3 cells (Homo sapiens, UniProt P00533, D770Y/INS769G).
T7 construct: expressed in transfected cells; host or cells: Ba/F3
As to the kind of experiment: Proliferation inhibition assay, EGFR InsGY transformed Ba/F3 cells. The method, then:
as §1, §2, §3

T2 sequence (P04626 with tags, fused parts or gaps INS773WL/M774V): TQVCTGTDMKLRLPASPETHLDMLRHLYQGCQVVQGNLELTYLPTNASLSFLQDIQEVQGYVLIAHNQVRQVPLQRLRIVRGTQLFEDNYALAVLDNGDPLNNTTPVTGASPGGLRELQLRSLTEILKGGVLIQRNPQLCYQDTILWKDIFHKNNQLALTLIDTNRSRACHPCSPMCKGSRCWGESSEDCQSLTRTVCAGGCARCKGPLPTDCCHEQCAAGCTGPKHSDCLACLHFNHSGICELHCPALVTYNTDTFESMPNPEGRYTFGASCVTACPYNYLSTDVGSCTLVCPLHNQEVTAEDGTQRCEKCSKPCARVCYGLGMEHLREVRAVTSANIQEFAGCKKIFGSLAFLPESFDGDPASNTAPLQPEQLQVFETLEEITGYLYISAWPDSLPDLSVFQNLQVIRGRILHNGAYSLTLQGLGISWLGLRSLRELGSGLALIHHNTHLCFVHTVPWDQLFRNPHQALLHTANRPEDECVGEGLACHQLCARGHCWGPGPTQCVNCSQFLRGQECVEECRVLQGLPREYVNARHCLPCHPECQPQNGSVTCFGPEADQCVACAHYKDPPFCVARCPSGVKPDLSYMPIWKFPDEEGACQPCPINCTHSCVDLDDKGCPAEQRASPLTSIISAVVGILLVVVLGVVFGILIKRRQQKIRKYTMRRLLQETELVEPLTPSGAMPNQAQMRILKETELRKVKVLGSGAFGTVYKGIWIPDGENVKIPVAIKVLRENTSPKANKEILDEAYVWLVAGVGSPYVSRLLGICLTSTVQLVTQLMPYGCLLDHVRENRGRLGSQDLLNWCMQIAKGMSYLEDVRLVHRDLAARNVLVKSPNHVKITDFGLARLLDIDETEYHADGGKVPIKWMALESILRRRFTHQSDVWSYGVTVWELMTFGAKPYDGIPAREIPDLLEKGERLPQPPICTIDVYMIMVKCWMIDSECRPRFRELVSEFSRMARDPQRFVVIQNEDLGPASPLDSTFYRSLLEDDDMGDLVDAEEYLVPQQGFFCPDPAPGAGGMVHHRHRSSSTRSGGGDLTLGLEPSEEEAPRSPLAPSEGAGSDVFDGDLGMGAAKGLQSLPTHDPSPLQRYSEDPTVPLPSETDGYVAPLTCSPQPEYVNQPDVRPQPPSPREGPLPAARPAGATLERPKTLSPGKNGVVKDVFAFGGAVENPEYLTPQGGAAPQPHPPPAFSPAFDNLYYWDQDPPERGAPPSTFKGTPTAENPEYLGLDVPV
T5 sequence (P00533 with tags, fused parts or gaps INS770SVD): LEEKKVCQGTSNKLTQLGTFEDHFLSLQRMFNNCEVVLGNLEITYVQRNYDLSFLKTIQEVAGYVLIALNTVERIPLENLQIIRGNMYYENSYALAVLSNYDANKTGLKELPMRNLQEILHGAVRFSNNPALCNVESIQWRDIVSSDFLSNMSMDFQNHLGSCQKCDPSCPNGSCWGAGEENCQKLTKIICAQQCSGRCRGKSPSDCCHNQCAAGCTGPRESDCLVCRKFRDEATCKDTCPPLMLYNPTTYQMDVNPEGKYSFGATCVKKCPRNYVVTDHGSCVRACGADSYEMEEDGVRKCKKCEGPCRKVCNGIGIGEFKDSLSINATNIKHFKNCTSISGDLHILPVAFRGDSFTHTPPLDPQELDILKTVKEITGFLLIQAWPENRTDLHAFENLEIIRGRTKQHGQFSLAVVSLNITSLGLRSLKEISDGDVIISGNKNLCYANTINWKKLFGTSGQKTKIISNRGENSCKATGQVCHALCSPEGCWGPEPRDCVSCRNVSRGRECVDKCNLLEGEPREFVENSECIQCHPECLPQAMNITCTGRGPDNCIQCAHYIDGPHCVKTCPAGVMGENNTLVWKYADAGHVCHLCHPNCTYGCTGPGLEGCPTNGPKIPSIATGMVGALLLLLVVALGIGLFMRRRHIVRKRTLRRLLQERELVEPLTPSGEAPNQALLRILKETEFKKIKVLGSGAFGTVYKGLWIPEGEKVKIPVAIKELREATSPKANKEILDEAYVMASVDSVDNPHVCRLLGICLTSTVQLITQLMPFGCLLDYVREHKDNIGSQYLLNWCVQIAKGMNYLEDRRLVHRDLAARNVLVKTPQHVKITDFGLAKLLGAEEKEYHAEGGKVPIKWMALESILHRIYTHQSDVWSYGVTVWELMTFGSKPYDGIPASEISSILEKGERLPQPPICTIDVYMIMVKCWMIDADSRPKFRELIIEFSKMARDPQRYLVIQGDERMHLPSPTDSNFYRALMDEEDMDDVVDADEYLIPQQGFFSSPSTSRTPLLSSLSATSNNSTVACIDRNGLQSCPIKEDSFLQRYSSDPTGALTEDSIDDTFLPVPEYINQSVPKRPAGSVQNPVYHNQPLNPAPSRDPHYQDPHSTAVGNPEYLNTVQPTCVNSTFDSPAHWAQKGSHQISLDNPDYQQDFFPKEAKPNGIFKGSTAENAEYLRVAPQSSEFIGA
T7 sequence (P00533 with tags, fused parts or gaps INS769G/D770Y): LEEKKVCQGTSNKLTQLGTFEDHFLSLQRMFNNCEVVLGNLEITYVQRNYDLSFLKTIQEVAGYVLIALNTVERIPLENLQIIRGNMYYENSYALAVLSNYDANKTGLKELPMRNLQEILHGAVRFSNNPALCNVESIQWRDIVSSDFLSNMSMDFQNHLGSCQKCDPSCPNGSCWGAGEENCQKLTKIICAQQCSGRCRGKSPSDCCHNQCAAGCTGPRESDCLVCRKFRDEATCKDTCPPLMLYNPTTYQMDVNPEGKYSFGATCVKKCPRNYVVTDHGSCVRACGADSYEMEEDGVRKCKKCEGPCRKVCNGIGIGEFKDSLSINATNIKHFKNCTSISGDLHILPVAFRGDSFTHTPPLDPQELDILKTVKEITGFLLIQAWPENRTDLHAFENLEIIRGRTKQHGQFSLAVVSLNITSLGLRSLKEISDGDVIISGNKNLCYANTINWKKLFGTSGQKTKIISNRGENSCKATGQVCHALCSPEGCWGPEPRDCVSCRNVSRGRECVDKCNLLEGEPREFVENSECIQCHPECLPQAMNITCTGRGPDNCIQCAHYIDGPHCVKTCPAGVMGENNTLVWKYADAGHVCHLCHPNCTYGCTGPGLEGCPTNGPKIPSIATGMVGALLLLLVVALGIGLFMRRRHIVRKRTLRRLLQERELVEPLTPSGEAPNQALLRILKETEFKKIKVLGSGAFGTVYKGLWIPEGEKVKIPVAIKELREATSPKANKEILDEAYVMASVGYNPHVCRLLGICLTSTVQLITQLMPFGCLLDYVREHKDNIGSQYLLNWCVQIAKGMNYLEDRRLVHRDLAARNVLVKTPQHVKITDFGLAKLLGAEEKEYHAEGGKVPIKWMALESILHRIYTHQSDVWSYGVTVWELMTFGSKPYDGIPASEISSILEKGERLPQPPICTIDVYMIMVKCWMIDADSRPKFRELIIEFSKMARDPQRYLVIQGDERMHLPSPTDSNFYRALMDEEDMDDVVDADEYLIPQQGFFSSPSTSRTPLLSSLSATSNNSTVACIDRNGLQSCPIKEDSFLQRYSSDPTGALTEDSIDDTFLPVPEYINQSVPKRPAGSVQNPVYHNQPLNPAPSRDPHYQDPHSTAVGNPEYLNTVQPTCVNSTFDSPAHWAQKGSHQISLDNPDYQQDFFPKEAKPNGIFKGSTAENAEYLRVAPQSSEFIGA
T3 sequence (P04626 with tags, fused parts or gaps INS775YVMA): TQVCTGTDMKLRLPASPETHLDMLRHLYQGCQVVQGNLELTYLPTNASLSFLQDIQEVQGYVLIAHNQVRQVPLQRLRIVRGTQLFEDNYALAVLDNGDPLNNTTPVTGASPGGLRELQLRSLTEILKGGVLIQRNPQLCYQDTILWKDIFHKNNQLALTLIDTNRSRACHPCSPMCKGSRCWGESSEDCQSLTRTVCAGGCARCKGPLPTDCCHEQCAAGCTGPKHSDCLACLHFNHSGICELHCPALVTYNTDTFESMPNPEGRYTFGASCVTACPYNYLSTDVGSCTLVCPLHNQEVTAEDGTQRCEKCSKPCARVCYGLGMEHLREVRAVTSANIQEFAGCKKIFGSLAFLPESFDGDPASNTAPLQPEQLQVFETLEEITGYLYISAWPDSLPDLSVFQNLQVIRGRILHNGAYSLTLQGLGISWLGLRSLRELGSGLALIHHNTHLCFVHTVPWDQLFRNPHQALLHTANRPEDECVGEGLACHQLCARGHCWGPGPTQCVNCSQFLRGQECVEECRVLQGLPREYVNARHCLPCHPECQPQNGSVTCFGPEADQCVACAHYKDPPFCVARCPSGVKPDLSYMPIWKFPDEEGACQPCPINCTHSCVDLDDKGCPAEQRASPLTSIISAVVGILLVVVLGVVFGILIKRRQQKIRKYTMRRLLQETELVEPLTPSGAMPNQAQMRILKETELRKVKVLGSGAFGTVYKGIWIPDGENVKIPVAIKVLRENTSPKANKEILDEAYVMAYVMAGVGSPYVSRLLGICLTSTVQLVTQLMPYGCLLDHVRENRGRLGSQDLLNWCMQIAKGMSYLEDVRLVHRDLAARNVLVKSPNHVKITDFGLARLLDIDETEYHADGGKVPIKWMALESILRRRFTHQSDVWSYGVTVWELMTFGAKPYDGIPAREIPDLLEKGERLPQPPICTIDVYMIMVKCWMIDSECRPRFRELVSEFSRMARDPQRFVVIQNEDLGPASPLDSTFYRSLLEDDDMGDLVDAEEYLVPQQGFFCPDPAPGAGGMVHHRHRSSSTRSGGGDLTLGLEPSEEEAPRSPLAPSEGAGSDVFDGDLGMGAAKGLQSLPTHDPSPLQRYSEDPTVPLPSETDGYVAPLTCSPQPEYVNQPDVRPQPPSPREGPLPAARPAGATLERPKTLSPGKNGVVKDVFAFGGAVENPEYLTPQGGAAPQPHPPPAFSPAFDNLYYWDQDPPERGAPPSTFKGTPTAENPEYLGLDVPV

As for `C=CC(=O)Nc1cc(Nc2ncc3cc(Oc4ccc(F)c(Cl)c4)c(=O)n(C)c3n2)c(OC)cc1N(C)CCN(C)C` [Compound 137], the EC50 in assay [1] (Table 10 key), in assay [2] (Table 10 key) and in assay [3] (Table 10 key) was below 200 nM throughout.

`C=CC(=O)Nc1cccc(-n2c(=O)c(Oc3cc(F)c(F)cc3F)cc3cnc(Nc4cnn(C)c4)nc32)c1` [Compound 87]: the EC50 is below 200 nM in assay [4]; below 200 nM in assay [1] (Table 10 key); below 200 nM in assay [5]; below 200 nM in assay [2] (Table 10 key); below 200 nM in assay [3] (Table 10 key); 600 to 1000 nM in assay [6].

As for `C=CC(=O)Nc1cc(Nc2ncc3cc(Oc4ccc(F)cc4F)c(=O)n(C)c3n2)cnc1N(C)CCN(C)C` [Compound 113], the 50% effective concentration (EC50) in assay [7], in assay [4], in assay [1] (Table 10 key), in assay [5], in assay [2] (Table 10 key) and in assay [3] (Table 10 key) was below 200 nM in each case. The molecule further displayed a concentration giving a half-maximal response (EC50) in assay [6] of 600 to 1000 nM.

For the molecule `C=CC(=O)Nc1cc(Nc2ncc3cc(Oc4ccc(F)cc4F)c(=O)n(C)c3n2)c(OC)cc1C1CCN(C)CC1` [Compound 128], the concentration for a half-maximal effect (EC50) in assay [4] was 200 to 600 nM; in assay [1] (Table 10 key), 200 to 600 nM; in assay [5] it was 600 to 1000 nM; in assay [3] (Table 10 key), below 200 nM.

Consider `CCC(=O)Nc1cc(Nc2ncc3cc(Oc4ccc(F)cc4F)c(=O)n(C)c3n2)c(OC)cc1N(C)CCN(C)C` [Compound 111], for which the EC50 in assay [7], in assay [4], in assay [1] (Table 10 key), in assay [5], in assay [2] (Table 10 key) and in assay [3] (Table 10 key) was above 1000 nM each time. The EC50 in assay [6] is above 1000 nM.

Turning to `C=CC(=O)Nc1cc(Nc2ncc3cc(Oc4ccc(F)cc4F)c(=O)[nH]c3n2)c(OC)cc1N(C)CCN(C)C` [Compound 99], the EC50 in assay [7], in assay [4], in assay [1] (Table 10 key), in assay [5], in assay [2] (Table 10 key) and in assay [3] (Table 10 key) was below 200 nM each time. Further, the EC50 in assay [6] fell in the range of 200 to 600 nM.

Turning to `C=CC(=O)Nc1cccc(-n2c(=O)c(Oc3ccc(F)cc3F)cc3cnc(N)nc32)c1` [Compound 106], the half-maximal effective concentration (EC50) in assay [7], in assay [4], in assay [1] (Table 10 key), in assay [5], in assay [2] (Table 10 key) and in assay [3] (Table 10 key) was below 200 nM each time. This molecule also had a concentration giving a half-maximal response (EC50) in assay [6] of 200 to 600 nM.

As to `C=CC(=O)Nc1cc(Nc2ncc3cc(Oc4ccc(F)cc4F)c(=O)n(C)c3n2)ccc1CCCN(C)C` [Compound 117], the EC50 in assay [4] is below 200 nM; in assay [1] (Table 10 key), below 200 nM; in assay [5], 200 to 600 nM; in assay [2] (Table 10 key), 200 to 600 nM; in assay [3] (Table 10 key), below 200 nM; in assay [6], above 1000 nM.

For the molecule `C=CC(=O)Nc1ccc(OC)c(Nc2ncc3cc(Oc4ccc(F)cc4F)c(=O)n(CCN(C)C)c3n2)c1` [Compound 94], the EC50 in assay [7] was below 200 nM; in assay [4], below 200 nM; in assay [1] (Table 10 key), below 200 nM; in assay [5], 200 to 600 nM; in assay [2] (Table 10 key) it was 200 to 600 nM; in assay [3] (Table 10 key), below 200 nM. In assay [6], this molecule displayed a 50% effective concentration (EC50) above 1000 nM.

For `C=CC(=O)N1C[C@H](Cn2c(=O)c(Oc3ccc(F)cc3F)cc3cnc(Nc4cnn(C)c4)nc32)[C@@H](OC)C1` [Compound 102], the EC50 in assay [7], in assay [4], in assay [1] (Table 10 key), in assay [5], in assay [2] (Table 10 key) and in assay [3] (Table 10 key) was below 200 nM throughout. Further, the 50% effective concentration (EC50) in assay [6] lay in the range of 200 to 600 nM.

With `C=CC(=O)Nc1cc(Nc2ncc3cc(Nc4ccc(F)cc4F)c(=O)n(C)c3n2)c(OC)cc1N(C)CCN(C)C` [Compound 141], the half-maximal effective concentration (EC50) in assay [7] was below 200 nM; in assay [4] it was below 200 nM; in assay [1] (Table 9 key) it was below 100 nM; in assay [5], below 200 nM; in assay [2] (Table 9 key), below 100 nM; in assay [3] (Table 9 key) it was below 100 nM. In assay [6], this molecule displayed an EC50 of 200 to 600 nM.

Regarding `CC#CC(=O)Nc1cc(Nc2ncc3cc(Oc4ccc(F)cc4F)c(=O)n(C)c3n2)c(OC)cc1N(C)CCN(C)C` [Compound 125], the EC50 in assay [7] is below 200 nM; in assay [4] it was below 200 nM; in assay [1] (Table 10 key), below 200 nM; in assay [5], below 200 nM; in assay [2] (Table 10 key), 200 to 600 nM; in assay [3] (Table 10 key), below 200 nM. In assay [6], this molecule yielded an EC50 of 600 to 1000 nM.

With `C=CC(=O)Nc1cc(Nc2ncc3cc(Oc4ccc(F)cc4F)c(=O)n(CC(F)(F)F)c3n2)c(OC)cc1N(C)CCN(C)C` [Compound 85], the EC50 in assay [7], in assay [4], in assay [1] (Table 10 key), in assay [5], in assay [2] (Table 10 key) and in assay [3] (Table 10 key) was below 200 nM in each case. In assay [6], this molecule returned an EC50 below 200 nM.

In the case of `C=CC(=O)N1C[C@H](Cn2c(=O)c(Oc3ccc(F)cc3F)cc3cnc(NC(C)=O)nc32)[C@@H](OC)C1` [Compound 112], the EC50 in assay [4] is below 200 nM; in assay [1] (Table 10 key), 200 to 600 nM; in assay [5], below 200 nM; in assay [3] (Table 10 key), 200 to 600 nM.

In the case of `C=CC(=O)Nc1cc(Nc2ncc3cc(Oc4ccccc4)c(=O)n(C)c3n2)c(OC)cc1N(C)CCN(C)C` [Compound 132], the half-maximal effective concentration (EC50) in assay [4], in assay [1] (Table 10 key), in assay [5], in assay [2] (Table 10 key), in assay [3] (Table 10 key) and in assay [6] was below 200 nM each time.

For `C=CC(=O)Nc1cc(Nc2ncc3cc(Oc4ccc(F)cc4)c(=O)n(C)c3n2)c(OC)cc1N(C)CCN(C)C` [Compound 130], the half-maximal effective concentration (EC50) in assay [4], in assay [1] (Table 10 key), in assay [5], in assay [2] (Table 10 key), in assay [3] (Table 10 key) and in assay [6] was below 200 nM each time.

As for `C=CC(=O)N1C[C@H](Cn2c(=O)c(Oc3ccc(F)cc3F)cc3cnc(N)nc32)[C@@H](OC)C1` [Compound 110], the half-maximal effective concentration (EC50) in assay [4] is 200 to 600 nM; in assay [1] (Table 10 key), below 200 nM; in assay [5], below 200 nM; in assay [3] (Table 10 key) it was below 200 nM.

With `C=CC(=O)Nc1cccc(-n2c(=O)c(Oc3ccc(F)c(Cl)c3)cc3cnc(Nc4cnn(C)c4)nc32)c1` [Compound 88], the concentration giving a half-maximal response (EC50) was below 200 nM in assay [4]; below 200 nM in assay [1] (Table 10 key); below 200 nM in assay [5]; 200 to 600 nM in assay [2] (Table 10 key); below 200 nM in assay [3] (Table 10 key); 200 to 600 nM in assay [6].

Turning to `C=CC(=O)Nc1cc(Nc2ncc3cc(Oc4ccc(C)cc4)c(=O)n(C)c3n2)c(OC)cc1N(C)CCN(C)C` [Compound 131], the EC50 is below 200 nM in assay [4]; below 200 nM in assay [1] (Table 10 key); below 200 nM in assay [5]; below 200 nM in assay [2] (Table 10 key); below 200 nM in assay [3] (Table 10 key); 200 to 600 nM in assay [6].

On to `C=CC(=O)Nc1cc(Nc2ncc3cc(Oc4ccc(F)cc4)c(=O)n(C)c3n2)ccc1N(C)CCN(C)C` [Compound 129], for which the EC50 was below 200 nM in assay [4]; below 200 nM in assay [1] (Table 10 key); 200 to 600 nM in assay [5]; 600 to 1000 nM in assay [2] (Table 10 key); below 200 nM in assay [3] (Table 10 key); above 1000 nM in assay [6].

As for `C=CC(=O)Nc1cc(Nc2ncc3cc(Oc4ccc(F)cc4F)c(=O)n(C)c3n2)ccc1N(C)CCN(C)C` [Compound 116], the concentration for a half-maximal effect (EC50) in assay [4], in assay [1] (Table 10 key), in assay [5], in assay [2] (Table 10 key), in assay [3] (Table 10 key) and in assay [6] was below 200 nM in each case.

For `C=CC(=O)Nc1cccc(-n2c(=O)c(Oc3ccc(Cl)cc3F)cc3cnc(Nc4cnn(C)c4)nc32)c1` [Compound 89], the half-maximal effective concentration (EC50) in assay [4] was below 200 nM; in assay [1] (Table 10 key), below 200 nM; in assay [5], below 200 nM; in assay [2] (Table 10 key), below 200 nM; in assay [3] (Table 10 key), below 200 nM; in assay [6], 200 to 600 nM.

As to `C=CC(=O)Nc1cc(Nc2ncc3cc(Oc4ccc(F)cc4F)c(=O)n(C)c3n2)c(OC)cc1C1CCNCC1` [Compound 127], the EC50 in assay [4], in assay [1] (Table 10 key), in assay [5] and in assay [3] (Table 10 key) was above 1000 nM throughout.

What is called EC50 is the concentration giving half of the maximal effect.

Source of the values: patent US11945816B2, “Inhibitors of EGFR and/or HER2 and methods of use” (Dana-Farber Cancer Institute, Inc., priority 2017, dated 2024).
